Assay results as given in patent US12479877B2, “Methods for purifying steviol glycosides and uses of the same” (PureCircle Sdn. Bhd., priority 2010, dated 2025).
“Also recorded” adds a separate entry of the source.

Tests used:
Assay type in all cases: in vivo, human
one experienced panelist = assay: Taste evaluation of Reb X against Reb A and Reb D, multi-sip and swallow taste method; conditions: for Taste Properties: 500 ppm in citric buffer (pH 3.22), room temperature
Method: The taste properties of a sample of Reb X were studied against Rebaudioside A (Reb A) and Rebaudioside D (Rb D) samples. Rb A was obtained from Cargill (lot #1040) and Reb-D was obtained from PureCircle (lot #11/3/08).
The samples were prepared at 500 ppm for sweetness evaluation by adding moisture compensated mass into a 100 mL sample of carbon-treated water and citric buffer solutions.
Citric buffer was prepared by mixing 1.171 g/L citric acid, 0.275 g/L sodium citrate and 0.185 g/L sodium benzoate with carbon-treated water, with a final pH of 3.22. The mixtures were moderately stirred at room temperature. The Reb X sample was then evaluated against the two control Reb A and Reb D samples in water and citric buffer at room temperature (RT) and at 4° C. in an ice bath by one experienced panelist for any tasting quality determinations using the controlled, multi-sip and swallow taste method shown below:
1. Take first sip (˜1.8 mL) of control and swallow. Wait for 15-25 sec, then take second sip of control and wait for 15-25 sec.
2. Take first sip of the experimental sample, wait for 15-25 sec, then take second sip. Compare to second sip of control.
3. Repeat steps #1 and #2 for the third and fourth sips of the control and experimental samples to confirm the initial finding.
The taste evaluation results of the Reb X samples against the control Reb A and Reb D samples at 500 ppm in citric buffer (CB) at 4° C. and RT are described in Table 4.

panelists [1] = assay: Sensory properties in acidified water (pH 3.0) at 500 mg/L, 20 panelists; conditions: 500 ppm, acidified water pH 3.0, 20 panelists
Method: The sensory properties of Reb X were evaluated in acidified water (pH 3.0 by phosphoric acid) at 500 mg/L concentration by 20 panelists.

panelists [2] = assay: as above; conditions: 10,000 ppm, acidified water pH 3.0, 20 panelists

| SMILES | Taste Properties (one experienced panelist) | Astringent taste: Number of panelists detected the attribute (panelists [1]) | Bitter taste: Number of panelists detected the attribute (panelists [1]) | Licorice taste: Number of panelists detected the attribute (panelists [1]) | Overall evaluation: Satisfactory (number of panelists of 20) (panelists [1]) | Quality of sweet taste: Bitter aftertaste (number of panelists of 20) (panelists [1]) | Sweet Aftertaste: Number of panelists detected the attribute (panelists [1]) | Astringency, sweetness intense (depth) and bitterness notes (one experienced panelist; 500 ppm, citrate buffer system, compared with Reb A) | Astringent taste: Number of panelists detected the attribute (panelists [2]) | Bitter taste: Number of panelists detected the attribute (panelists [2]) | Licorice taste: Number of panelists detected the attribute (panelists [2]) | Overall evaluation: Satisfactory (number of panelists of 20) (panelists [2]) | Quality of sweet taste: Clean (number of panelists of 20) (panelists [2]) | Sweet Aftertaste: Number of panelists detected the attribute (panelists [2]) |
| --- | --- | --- | --- | --- | --- | --- | --- | --- | --- | --- | --- | --- | --- | --- |
| C=C1C[C@@]23CC[C@H]4[C@@](C)(CCC[C@@]4(C)C(=O)O[C@@H]4O[C@H](CO)[C@@H](O)[C@H](O)[C@H]4O)[C@@H]2CC[C@]1(O[C@@H]1O[C@H](CO)[C@@H](O)[C@H](O[C@@H]2O[C@H](CO)[C@@H](O)[C@H](O)[C@H]2O)[C@H]1O[C@@H]1O[C@H](CO)[C@@H](O)[C@H](O)[C@H]1O)C3 [Reb A, Rebaudioside A] | Delayed sweetness onset, significant lingering sweet aftertaste,; also recorded: licorice and bitter off-notes | 20 | 20 | 20 | (1 of 20) | (20 of 20) | 20 | – | – | – | – | – | – | – |
| C=C1C[C@@]23CC[C@H]4[C@@](C)(CCC[C@@]4(C)C(=O)O[C@@H]4O[C@H](CO)[C@@H](O)[C@H](O)[C@H]4O[C@@H]4O[C@H](CO)[C@@H](O)[C@H](O)[C@H]4O)[C@@H]2CC[C@]1(O[C@@H]1O[C@H](CO)[C@@H](O)[C@H](O[C@@H]2O[C@H](CO)[C@@H](O)[C@H](O)[C@H]2O)[C@H]1O[C@@H]1O[C@H](CO)[C@@H](O)[C@H](O)[C@H]1O)C3 [Reb D, Rebaudioside D] | Delayed sweetness onset, less sweetness linger as compared to Reb; also recorded: A, no bitter off-notes | 3 | 3 | 2 | (11 of 20) | – | 5 | did not have the astringency or sweetness intense (depth) and bitterness notes compared to that of the Reb A | – | – | – | – | – | – |
| C=C1C[C@@]23CC[C@H]4[C@@](C)(CCC[C@@]4(C)C(=O)O[C@@H]4O[C@H](CO)[C@@H](O)[C@H](O)[C@H]4O)[C@@H]2CC[C@]1(O[C@@H]1O[C@H](CO)[C@@H](O)[C@H](O)[C@H]1O[C@@H]1O[C@H](CO)[C@@H](O)[C@H](O)[C@H]1O)C3 [Stevioside] | – | 20 | 20 | 20 | (0 of 20) | (20 of 20) | 20 | – | – | – | – | – | – | – |
| OC[C@H]1O[C@@](CO)(O[C@H]2O[C@H](CO)[C@@H](O)[C@H](O)[C@H]2O)[C@@H](O)[C@@H]1O [Sucrose] | – | – | – | – | – | – | – | – | 0 | 0 | 0 | (20 of 20) | Clean (20 | 0 |
